# According to patent US5382586A, “Aryl (or heteroaryl)piperazinylalkylazole derivatives, their preparation and their application as medicaments” (priority 1991, dated 1995):
# Assays:
# [1] = test system: norepinephrine-induced death in rats; experiment: norepinephrine antagonism test in rats (antihypertensive activity); type: in vivo, rat (male Wister); conditions: for Activity % (norepinephrine antagonistic antihypertensive activity): D = 40 mg/kg, i.p., rat, norepinephrine 1.25 mg/kg i.v. after 2 hours; for ED50: Rattus norvegicus, ip, 2 h, read-out: ED50 (norepinephrine antagonistic antihypertensive activity)
# Method: This activity is manifested by the protection of animals before death induced by an intravenous injection of norepinephrine, which produces a hypertensive attack in rats.
# Male Wister rats weighing 200 grammes are used in this test. The product to be studied is administered intraperitoneally and 1.25 mg/kg (i.v.) of norepinephrine are administered after 2 hours.
# The initial administration dose in these studies is 40 mg/kg (i.p.).
# [2] = test system: conditioned avoidance response in male Wistar rats; experiment: conditioned avoidance response test (inhibition of the conditioned avoidance response; anxiolytic/tranquillising activity); type: in vivo, rat (male Wistar); conditions: rat; for Activity % (inhibition of the conditioned avoidance response): D = 80 mg/kg, p.o., 45 min before test; for ED50: po, 0.75 h
# Method: Male Wistar rats weighing 200 grammes which have been trained to jump over a barrier in an avoidance and escape cage (shuttle box) (Letica, reference LI 910 and LI 2700) within 30 seconds of their being introduced into the cage are used in this test.
# The products having an anxiolytic or tranquillising activity suppress the conditioned avoidance response.
# Training: day one: 11 trials at 3 minute intervals. Electric shock to the paws after 30 seconds (5 mA, 0.1 s, 10 s).
# Days two and three: 2 trials per day, with the selected rats only [sum of the scores for the first day (with the exception of the first trial)>14].
# Test day: groups formed by selected rats. Oral administration of the product or the vehicle 45 minutes before the start of the study.
# immobility of mice = experiment: desperate behaviour test (antidepressant activity); type: in vivo, mouse; conditions: 30 mg/kg, i.p.; p < 0.05; control 118 s
# Method: The desperate behaviour test in mice, described by R. D. Porsolt et al. (Arch. Int. Pharmacodyn. 1977, 229, 327-336), is used.
# The animals are placed for 6 minutes in a cylinder containing water, from which they are not able to escape. The period of immobility between minutes 2 and 5 is determined for groups of 10 mice per dosage tested.
# The product studied is administered i.p. 1 hour before the test. In this test the immobility of the animals is explained as being produced by their depressed state resulting from being faced with an adverse and insoluble situation in a hostile environment such as water.
# In our test imipramine (30 mg/kg; i.p.) was used as reference product.
# [3] = test system: familiarisation process in mice; experiment: light box/dark box test: familiarisation process (improvement of cognition); type: in vivo, mouse
# Excerpt: The influence of this product on the familiarisation process of mice in the light box/dark box test described by J. M. Barnes et al., (Pharmacol. Biochem. Behav., 1990, 35, 955-962) is studied. On the one hand, the effect on learning (the speed of familiarisation) and on the other hand the capacity for blocking contrary effects produced by escopolamine are studied.
# The mouse is placed in the light zone of a box divided into two compartments, one brightly illuminated, the light box, and the other with little illumination, the dark box.
# 1) The number of times the mouse stands up on the hind paws in each compartment during a 5 minute period is counted (see Column 1 of the table below).
# 2) The activity in each compartment is given by counting the number of crossings through the squares which form the divisions of each compartment (see Column 2 of the table below).
# 3) The time passed in the dark box during the 5 minute counting period is determined (see Column 3 of the table below).
# 4) The initial latent period is determined, that is to say the time which elapses after the animal is placed in the light box, at the start of the test, before it enters the dark box (see Column 4 of the table below).
# Two treatments with the vehicle are administered to the control animals per day. Two doses of 0.00001 ng/kg p.o. of compound 42 are administered per day to the animals treated with this product. The same operation is repeated daily for 5 days.
# The animals learn to remain in the dark box for a longer period and to go into the box more rapidly.
# On day six escopolamine (2×0.25 mg/kg, i.p.) is administered.
# They recover the learned habit on day seven.
# [4] = day 6, after 2 treatments with escopolamine (0.25 mg/kg, i.p.), Example 42 at 0.00001 ng/kg p.o. twice per day
smiles,measurement,setting,value
Clc1ccc2c(c1)ncn2CCCCN1CCN(c2ncccn2)CC1 [Example 21],Activity % (norepinephrine antagonistic antihypertensive activity),[1],0%
same,Activity % (inhibition of the conditioned avoidance response),[2],100%
same,ED50,[2],9.3 mg/kg
Clc1ccc2ncn(CCCCN3CCN(c4ncccn4)CC3)c2c1 [Example 22],Activity % (norepinephrine antagonistic antihypertensive activity),[1],0%
same,Activity % (inhibition of the conditioned avoidance response),[2],100%
same,ED50,[2],9.1 mg/kg
c1cnc(N2CCN(CCCCn3cncn3)CC2)nc1 [Example 23],Activity % (norepinephrine antagonistic antihypertensive activity),[1],50%
same,Activity % (inhibition of the conditioned avoidance response),[2],100%
same,ED50,[2],6.3 mg/kg
c1cnc(N2CCN(CCCCn3nc4ccccc4n3)CC2)nc1 [Example 24],Activity % (norepinephrine antagonistic antihypertensive activity),[1],50%
same,Activity % (inhibition of the conditioned avoidance response),[2],87%
Cc1nc2ccccc2n1CCCCN1CCN(c2ncccn2)CC1 [Example 25],Activity % (norepinephrine antagonistic antihypertensive activity),[1],25%
same,Activity % (inhibition of the conditioned avoidance response),[2],52%
same,ED50,[2],61.7 mg/kg
Cc1cc2ncn(CCCCN3CCN(c4ncccn4)CC3)c2cc1C [Example 26],Activity % (norepinephrine antagonistic antihypertensive activity),[1],0%
same,Activity % (inhibition of the conditioned avoidance response),[2],88%
same,ED50,[2],34.5 mg/kg
COc1ccc(N2CCN(CCCCn3cc(Cl)cn3)CC2)cc1 [Example 27],Activity % (norepinephrine antagonistic antihypertensive activity),[1],0%
same,Activity % (inhibition of the conditioned avoidance response),[2],88%
COc1ccc(N2CCN(CCCCn3c(C)nc(Cl)c3Cl)CC2)cc1 [Example 28],Activity % (norepinephrine antagonistic antihypertensive activity),[1],100%
same,ED50,[1],14 mg/kg
same,Activity % (inhibition of the conditioned avoidance response),[2],75%
same,ED50,[2],37.5 mg/kg
COc1ccccc1N1CCN(CCCCn2cc(Cl)cn2)CC1 [Example 29],Activity % (norepinephrine antagonistic antihypertensive activity),[1],100%
same,ED50,[1],0.46 mg/kg
same,Activity % (inhibition of the conditioned avoidance response),[2],100%
same,ED50,[2],8.9 mg/kg
COc1ccccc1N1CCN(CCCCn2c(C)nc(Cl)c2Cl)CC1 [Example 30],Activity % (norepinephrine antagonistic antihypertensive activity),[1],100%
same,ED50,[1],0.18 mg/kg
same,Activity % (inhibition of the conditioned avoidance response),[2],95%
same,ED50,[2],12.8 mg/kg
COc1cccc(N2CCN(CCCCn3cc(Cl)cn3)CC2)c1 [Example 31],Activity % (norepinephrine antagonistic antihypertensive activity),[1],0%
same,ED50,[1],8.9 mg/kg
same,Activity % (inhibition of the conditioned avoidance response),[2],100%
same,ED50,[2],20.8 mg/kg
COc1ccc(N2CCN(CCCCn3cccc3)CC2)cc1 [Example 32],Activity % (norepinephrine antagonistic antihypertensive activity),[1],0%
same,Activity % (inhibition of the conditioned avoidance response),[2],83%
same,ED50,[2],50 mg/kg
COc1ccccc1N1CCN(CCCCn2cccc2)CC1 [Example 33],Activity % (norepinephrine antagonistic antihypertensive activity),[1],100%
same,ED50,[1],2.23 mg/kg
same,Activity % (inhibition of the conditioned avoidance response),[2],99%
same,ED50,[2],23.9 mg/kg
c1ccc(N2CCN(CCCCn3cccc3)CC2)cc1 [Example 34],Activity % (norepinephrine antagonistic antihypertensive activity),[1],100%
same,ED50,[1],10 mg/kg
same,Activity % (inhibition of the conditioned avoidance response),[2],96%
same,ED50,[2],23.7 mg/kg
"Clc1cnn(CCCCN2CCN(c3ccccc3)CC2)c1 [Example 35, 4-chloro-1-[4-(4-phenyl-1-piperazinyl)-butyl]-1H-pyrazole]",Activity % (norepinephrine antagonistic antihypertensive activity),[1],100%
same,ED50,[1],4.1 mg/kg
same,Activity % (inhibition of the conditioned avoidance response),[2],100%
same,ED50,[2],20.7 mg/kg
Cc1nc(Cl)c(Cl)n1CCCCN1CCN(c2ccccc2)CC1 [Example 36],Activity % (norepinephrine antagonistic antihypertensive activity),[1],100%
same,ED50,[1],7.6 mg/kg
same,Activity % (inhibition of the conditioned avoidance response),[2],76%
same,ED50,[2],42 mg/kg
Clc1cnn(CCCCN2CCN(c3ccccc3Cl)CC2)c1 [Example 37],Activity % (norepinephrine antagonistic antihypertensive activity),[1],100%
same,ED50,[1],1.9 mg/kg
same,Activity % (inhibition of the conditioned avoidance response),[2],86%
same,ED50,[2],29.5 mg/kg
Cc1nc(Cl)c(Cl)n1CCCCN1CCN(c2ccccc2Cl)CC1 [Example 38],Activity % (norepinephrine antagonistic antihypertensive activity),[1],100%
same,ED50,[1],1.3 mg/kg
same,Activity % (inhibition of the conditioned avoidance response),[2],78%
Clc1cccc(N2CCN(CCCCn3cc(Cl)cn3)CC2)c1 [Example 39],Activity % (norepinephrine antagonistic antihypertensive activity),[1],0%
same,Activity % (inhibition of the conditioned avoidance response),[2],100%
Cn1ccnc1N1CCN(CCCCn2cccn2)CC1 [Example 40],Activity % (norepinephrine antagonistic antihypertensive activity),[1],0%
same,Activity % (inhibition of the conditioned avoidance response),[2],28%
COc1ccccc1N1CCN(CCn2cc(Cl)cn2)CC1 [Example 41],Activity % (norepinephrine antagonistic antihypertensive activity),[1],75%
same,ED50,[1],5 mg/kg
same,Activity % (inhibition of the conditioned avoidance response),[2],52%
Clc1cnn(CCCCN2CCN(c3nsc4ccccc34)CC2)c1 [Example 43],Activity % (norepinephrine antagonistic antihypertensive activity),[1],66%
same,Activity % (inhibition of the conditioned avoidance response),[2],100%
Cc1nc(Cl)c(Cl)n1CCCCN1CCN(c2nsc3ccccc23)CC1 [Example 44],Activity % (norepinephrine antagonistic antihypertensive activity),[1],100%
same,Activity % (inhibition of the conditioned avoidance response),[2],95%
"COc1ccccc1N1CCN(CCCNc2cc(C)nn2C)CC1 [Example 45, 1,3-dimethyl-5-{3-[4-(2-methoxyphenyl)-1-piperazinyl]-propylamino}-1H-pyrazole]",Activity % (norepinephrine antagonistic antihypertensive activity),[1],100%
same,ED50,[1],2.8 mg/kg
same,Activity % (inhibition of the conditioned avoidance response),[2],100%
"CN(C)CCCN1c2ccccc2CCc2ccccc21 [Imipramine, reference compound]",Period of immobility,immobility of mice,71 s
"NC(=O)CN1CCCC1=O [Piracetam, reference compound]",cognition-improving activity,[3]; mice,no activity
"CN1C2CC(OC(=O)C(CO)c3ccccc3)CC1C1OC12 (stereo not drawn) [escopolamine, reference compound]",effect on the learned behaviour (control group),"[3]; 2×0.25 mg/kg, i.p., day six","the animals of the control group ""forget"" the learned behaviour"
same,"Activity within 5 min. period, dark (D)",[3]; [4],30
same,"Activity within 5 min. period, light (L)",[3]; [4],67
same,Latent period L-D,[3]; [4],21
same,"No. of times standing erect within 5 min period, dark (D)",[3]; [4],38
same,"No. of times standing erect within 5 min period, light (L)",[3]; [4],59
same,"Time in the box, dark (D)",[3]; [4],27
